Reference: patent US20230203560A1, “GLUCOSYL ESTERS FOR INFECTION SCREENING” (Board of Regents, The University of Texas System, priority 2020, published 2023)

Key:
leukocyte esterase (LE) [1] = experiment: Electrochemical LE assay in human urine: glucose released from glucosyl ester, read on glucose test strip with potentiostat; assay type: biochemical; settings: for sample incubation time with ester to yield enough glucose to be above the detection limit of the potentiostat/glucose strip system: human urine spiked with LE, 5.5 mM ester, glucose detection limit 5 μM
Experimental: (§1) The human leukocyte suspension in 154 mM NaCl solution (cat. No. MBS173116, 0.0867 mg mL^−1 leukocyte esterase (LE) protein, 4×10^8 WBC mL^−1) was purchased from MyBioSource (San Diego, Calif.). The suspension was diluted 10 times with a 90:10 vol. % mixture of 50 mM phosphate buffer saline (PBS, pH 7.40, 154 mM NaCl) solution and dimethylsulfoxide, left for 10 min to lyse the leukocytes chemically, sonicated for 30 s with a Q125 Qsonica probe (20% power) to further lyse them mechanically, and centrifuged at 15 000×g for 30 min. The resulting supernatant that contained LE was stored at −20° C.
The human synovial fluid (DLS0092658) was purchased from Discovery Life Sciences (Los Osos, Calif.) and stored at −70° C. when not in use. The clean-catch midstream portion of human urine (˜15.0 mL) was collected early in the morning in a 50.0-mL sterile centrifuge tube (Fisher Scientific, Pittsburgh, Pa.) centrifuged at 600×g for 5 min, and the supernatant was stored at −20° C. The synovial fluid and urine were spiked with known amount of LE before the analysis.
Electrochemical Measurements. The glucose strip was inserted into an electronic holder (DropSens, Llanera, Spain), which was then connected to a CHE 832B potentiostat (other potentiostats could also be used). The strip was used in a 2-electrode mode with the counter and reference electrodes connected together as a single cathode and a working electrode serving as an anode (the strip's fill-detector electrode was not used). The potential applied to a working electrode was equal to 0.15 V vs. strip's reference/counter electrode.
The 0.15 V potential was applied to a glucose strip, which was then contacted at time t=0 s with a small drop of sample (˜10 μL) that was placed on a Petri dish (FIG. 2). The amperogram obtained in such a way was integrated between t=2 and t=22 s to determine the charge Q flowing through the strip. Two charges were always determined: Q(ester) for a sample incubated with 5.5 mM ester for 5 min, and Q(no ester) for an original sample without ester. The difference in charge ΔQ [=Q(ester)−Q(no ester)] was proportional to the enzymatic activity of LE in a sample.
The samples were incubated with each ester to release glucose in the direct proportion to the enzymatic activity of LE in a sample. The released glucose was then detected at a commercial glucose test strip. A laboratory potentiostat was used to read the glucose strip. The strip was inserted in an electronic holder to facilitate the measurements (FIG. 2). Such a strip-potentiostat measuring system provided a much lower limit of glucose detection (5.0 μM, S/N=3; FIG. 3A) and a linear range at least up to 100 μM glucose (FIG. 3B), which allowed for a much shorter (minutes) incubation times (FIG. 4).

leukocyte esterase (LE) [2] = experiment: Electrochemical LE assay in human synovial fluid: glucose released from glucosyl ester, read on glucose test strip with potentiostat; assay type: biochemical; settings: human synovial fluid spiked with LE; 5.5 mM ester
Experimental: as §1
The human synovial fluid (DLS0092658) was purchased from Discovery Life Sciences (Los Osos, Calif.) and stored at −70° C. when not in use. […]
The 0.15 V potential was applied to a glucose strip, which was then contacted at time t=0 s with a small drop of sample (˜10 μL) that was placed on a Petri dish (FIG. 2). […] Two charges were always determined: Q(ester) for a sample incubated with 5.5 mM ester for 5 min, and Q(no ester) for an original sample without ester. […]
The samples were incubated with each ester to release glucose in the direct proportion to the enzymatic activity of LE in a sample. The released glucose was then detected at a commercial glucose test strip. A laboratory potentiostat was used to read the glucose strip. […]

Compound | sample incubation time with ester to yield enough glucose to be above the detection limit of the potentiostat/glucose strip system (leukocyte esterase (LE) [1]) [min] | sample incubation time with ester before reading the glucose strip (leukocyte esterase (LE) [2]) [min] | kinetics of the enzymatic reaction of LE with the ester, compared to ester α (leukocyte esterase (LE) [1]; ascribed from longer incubation time and lower calibration slope) | calibration slope (ΔQ vs LE concentration) lower than with ester α (leukocyte esterase (LE) [1]; human urine, ester γ 10 min vs ester α 5 min incubation (FIG. 8)) [%]
Cc1ccc(S(=O)(=O)N[C@@H](C)C(=O)OCCCC(=O)O[C@@H]2O[C@H](CO)[C@@H](O)[C@H](O)[C@H]2O)cc1 [ester α, (2S,3R,4S,5S,6R)-3,4,5-trihydroxy-6-(hydroxymethyl)oxan-2-yl 4-{[(2S)-2-(4-methylbenzenesulfonamido)propanoyl]oxy}butanoate] | 5 | 5 |  | 
Cc1ccc(S(=O)(=O)N[C@@H](C)C(=O)OCCNC(=O)O[C@H]2O[C@H](CO)[C@@H](O)[C@H](O)[C@H]2O)cc1 [ester γ, 2-[({[(2R,3R,4S,5S,6R)-3,4,5-trihydroxy-6-(hydroxymethyl)oxan-2-yl]oxy}carbonyl)amino]ethyl (2S)-2-(4-methylbenzenesulfonamido)propanoate] | 10 |  | slower kinetics | ~10
